Consider eight compounds from US20060135785A1, “Alpha-phenyl acetanilide derivatives having an acat inhibiting activity and the therapeutic application thereof” (Pierre Fabre Medicament, priority 2002, published 2006).

Structures are written as SMILES. Where two headings read alike, the source gives them in different places.

As a reminder, the melting point is the temperature, or range, at which the solid turns liquid.

Data set [1] relates to plasma cholesterol. Put plainly: Blood cholesterol-lowering activity in rats on hypercholesterolemic diet. To be noted: male rats, Altromin C 1061 hypercholesterolemic diet 4 days, dose that reduces the plasma cholesterol concentration by half compared with control animals. Type of data set: in vivo, rat. On the procedure: Male rats (160-180 g) were subjected, for 4 days, to an Altromin C 1061 hypercholesterolemic diet and treated in parallel orally with the compounds in suspension in a solution of 2% Tween 80 in distilled water.
On the 5th day, the animals not fasting are anaesthetized with ethyl ether, and bled out on EDTA via the abdominal aorta. The blood is immediately centrifuged and the plasma is stored at 4° C.
The plasma cholesterol is then assayed by the CHOD-PAP method (Boehringer Mannheim Ref. 237574). The 50% effective dose (ED50) corresponds to the dose that reduces the plasma cholesterol concentration by half compared with control animals.

Setting [2] is: Rattus norvegicus, po, 96 h, read-out: ED50.

Regarding `CCCCCCCCCCCCn1nnc(C(F)(C(=O)Nc2c(C)c(C)c(N)c(C)c2C)c2ccccc2)n1.Cl` (stereo not shown), the melting point was 168 °C.

In data set [1] (oral), `CCCCCCCCCCCCn1nnc(C(C(=O)Nc2cc(C)c(O)c(C)c2C)c2ccccc2)n1` (single isomer, unassigned; (+)) [Compound 5, (+)-2′,3′,5′-Trimethyl-4′-hydroxy-α-(2-dodecyl-2H-5-tetrazolyl)-α-phenylacetanilide] came in with an ED50 of 0.025 mg/kg. Regarding `CCCCCCCCCCCCn1nnc(C(F)(C(=O)Nc2cc(C)c(O)c(C)c2C)c2ccccc2)n1` (single isomer, unassigned; (+)) [Compound 9, (+)-21,3′,5′-Trimethyl-4′-hydroxy-α-(2-dodecyl-2H-5-tetrazolyl)-α-fluoro-α-phenylacetanilide], in data set [1] (setting [2]), the ED50 amounted to 0.012 mg/kg.

Take `CCCCCCCCCCCCS(=O)(=O)[C@H](C(=O)Nc1cc(C)c(O)c(C)c1C)c1ccccc1` [Compound 1, (S)-2′,3′,5′-Trimethyl-4′-hydroxy-α-dodecylsulfonyl-α-phenylacetanilide]: the ED50 in data set [1] (setting [2]) was 0.25 mg/kg. The same measure, in the same setting: as for `CCCCCCCCCCCCS(=O)(=O)C(F)(C(=O)Nc1cc(C)c(O)c(C)c1C)c1ccccc1` (stereo not drawn) [Compound 3, 2′,3′,5′-Trimethyl-4′-hydroxy-α-dodecylsulfonyl-α-fluoro-α-phenylacetanilide], the figure is 0.022 mg/kg.

`CCCCCCCCCCCCn1nnc(C(C(=O)Nc2cc(C)c(O)c(C)c2C)c2ccccc2)n1` (stereo not drawn) [Compound 4, 2′,3′,5′-Trimethyl-4′-hydroxy-α-(2-dodecyl-2H-5-tetrazolyl)-α-phenylacetanilide] returned a melting point of 105 °C. Besides, the ED50 in data set [1] (setting [2]) stood at 0.029 mg/kg. On the same counts, the results for `Cc1cc(NC(=O)C(F)(c2ccccc2)c2nnn(CCCCCCCCCCCC(F)F)n2)c(C)c(C)c1O` (stereo not drawn) [Compound 10, 2′,3′,5′-Trimethyl-4′-hydroxy-α-[2-(12,12-difluoro-dodecyl)-2H-5-tetrazolyl]-α-fluoro-α-phenylacetanilide] are 96 °C and 0.029 mg/kg. In the case of `CCCCCCCCCCCCS[C@H](C(=O)Nc1cc(C)c(O)c(C)c1C)c1ccccc1` [Eflucimibe, reference compound], the ED50 in data set [1] (setting [2]) was 0.12 mg/kg.
